Reference: ChEMBL document CHEMBL1146727, “Stereodefined and polyunsaturated inhibitors of histone deacetylase based on (2E,4E)-5-arylpenta-2,4-dienoic acid hydroxyamides” (Bioorg Med Chem Lett, 2004)

target: Histone deacetylase; experiment: Inhibition of histone deacetylase (HDAC) activity in HeLa cell nuclear extract; assay type: cell-based, Homo sapiens

Point of comparison: `CC(/C=C/C(=O)NO)=C\c1ccc(N(C)C)cc1`, IC50 788 nM. Against it:
- O=C(/C=C/C=C/c1ccc(Cl)cc1)NO — 3.1-fold lower, 252 nM
- CC(CCC(=O)NO)Cc1ccc(NS(=O)(=O)c2ccc(Cl)cc2)cc1 (configuration not stated) — within 1.5-fold, 1170 nM
- CC(/C=C/C(=O)NO)=C\c1ccc(NS(=O)(=O)c2ccccc2)cc1 — 4.6-fold lower, 172 nM
- CC(/C=C/C(=O)NO)=C\c1ccc(NS(=O)(=O)c2ccc(Cl)cc2)cc1 — 16-fold lower, 49 nM
- CC(/C=C/C(=O)NO)=C\c1ccc(Cl)cc1 — 2.6-fold lower, 302 nM
- COc1ccc(S(=O)(=O)Nc2ccc(/C=C/C=C/C(=O)NO)cc2)cc1 — 13-fold higher, 10400 nM
- COc1ccc(S(=O)(=O)Nc2ccc(/C=C(C)/C=C/C(=O)NO)cc2)cc1 — 11-fold lower, 74 nM
- CN(C)c1ccc(/C=C/C=C/C(=O)NO)cc1 — 2.2-fold higher, 1700 nM
- O=C(CCCCc1ccc(Cl)cc1)NO — 3.3-fold higher, 2580 nM
- O=C(/C=C/C=C/c1ccccc1)NO — 2.8-fold lower, 279 nM

With `CC(/C=C/C(=O)O)=C\c1ccc(NS(=O)(=O)c2ccc(Cl)cc2)cc1` the IC50 was over 100000 nM.
